In patent publication US20250109107A1, “AROMATIC RING-FUSED HETEROCYCLIC RING COMPOUND AS POTASSIUM CHANNEL REGULATOR, AND PREPARATION THEREFOR AND USE THEREOF” (Shanghai Zhimeng Biopharma, Inc., priority 2022, published 2025):
pEC50: −log10 of the molar value.

Target: T1, KCNQ2 potassium channels (CHO-KCNQ2 cells) (Homo sapiens, UniProt O43526)
T1 construct: expressed in transfected cells; host or cells: CHO cells stably expressing KCNQ2 (G418 selection in the culture medium)
Experiment: Potassium ion channel opener activity test (FDSS/μCELL detection, FluxOR thallium flux)
Type: cell-based
Conditions: for pEC50: 8 concentrations 0.045-100 μM, 3 replicate wells; for Maximum agonist rate (%): highest test concentration 100 μM, ratio of 180 s
Procedure: Example A1 Potassium Ion Channel Opener Activity Test (FDSS/p CELL Detection)
Cell preparation: CHO-KCNQ2 cells were cultured in a 175 cm^2 culture flask, and when the cell density grew to 60˜80%, the culture medium was removed and the cells were washed once with 7 mL PBS (Phosphate Buffered Saline), and then 3 mL of 0.25% Trypsin was added for digestion. After completion of digestion, 7 mL of culture medium (90% DMEM/F12+10% FBS+500 μg/mL G418) was added to neutralize, and centrifuged at 800 rpm for 3 min; the supernatant was aspirated, then 5 mL of culture medium was added to resuspend the cells, and the cells were counted.
Cell spreading: according to the cell counting results, the density was adjusted to 3×10^4 cells/well. After standing at room temperature for 30 minutes, the cells were placed in a CO2 incubator at 37° C. overnight, and incubated for 16-18 hours to reach a cell density of about 80%.
Fluorescent dye incubation: Cell culture solution was discarded, 80 μL/well of loading buffer was added and the cells were incubated for 60 minutes at room temperature and protected from light.
Compound incubation: Loading buffer was discarded, 80 μL/well of prepared compound solution was added, and the cells were incubated for 20 min at room temperature and protected from light.
Fluorescence data acquisition: Real-time fluorescence signal recording was performed using an FDSS/pCELL instrument with an excitation wavelength of 480 nm and an emission wavelength of 540 nm, and the signal was recorded once per second. 10 seconds of the baseline was recorded, then 20 μL/well of stimulation buffer was added, and the recording was continued until the end of 180 seconds.
Loading buffer: 10 mL/plate, prepared as follows:
Stimulation buffer: 5 mL/plate, prepared as follows:
The above buffers were obtained from a commercially available kit called FluxOR potassium ion channel assay.
20 mM stock solution of compound in DMSO was prepared, 10 μL of 20 mM compound stock solution was taken into 20 μL of DMSO solution, and a 3-fold serial dilution was performed to form 8 intermediate concentrations; then the intermediate concentrations of the compounds were taken respectively into test buffer, and a 200-fold dilution was performed to obtain the final concentration to be tested, and 80 μL of compound was taken and added to the assay plate.
The highest test concentration was 100 μM, and there was a total of8 concentrations. i.e., 100, 33.33, 11.11, 3.70, 1.23, 0.41, 0.137, 0.045 μM, respectively, with 3 replicate wells for each concentration.
The experimental data were analyzed by Excel 2007, GraphPad Prism 5.0 software, and the ratio of 180 s was counted to calculate the agonistic effect. The compound agonistic effect was calculated by the following equation: […]

T1 sequence (O43526 whole entry): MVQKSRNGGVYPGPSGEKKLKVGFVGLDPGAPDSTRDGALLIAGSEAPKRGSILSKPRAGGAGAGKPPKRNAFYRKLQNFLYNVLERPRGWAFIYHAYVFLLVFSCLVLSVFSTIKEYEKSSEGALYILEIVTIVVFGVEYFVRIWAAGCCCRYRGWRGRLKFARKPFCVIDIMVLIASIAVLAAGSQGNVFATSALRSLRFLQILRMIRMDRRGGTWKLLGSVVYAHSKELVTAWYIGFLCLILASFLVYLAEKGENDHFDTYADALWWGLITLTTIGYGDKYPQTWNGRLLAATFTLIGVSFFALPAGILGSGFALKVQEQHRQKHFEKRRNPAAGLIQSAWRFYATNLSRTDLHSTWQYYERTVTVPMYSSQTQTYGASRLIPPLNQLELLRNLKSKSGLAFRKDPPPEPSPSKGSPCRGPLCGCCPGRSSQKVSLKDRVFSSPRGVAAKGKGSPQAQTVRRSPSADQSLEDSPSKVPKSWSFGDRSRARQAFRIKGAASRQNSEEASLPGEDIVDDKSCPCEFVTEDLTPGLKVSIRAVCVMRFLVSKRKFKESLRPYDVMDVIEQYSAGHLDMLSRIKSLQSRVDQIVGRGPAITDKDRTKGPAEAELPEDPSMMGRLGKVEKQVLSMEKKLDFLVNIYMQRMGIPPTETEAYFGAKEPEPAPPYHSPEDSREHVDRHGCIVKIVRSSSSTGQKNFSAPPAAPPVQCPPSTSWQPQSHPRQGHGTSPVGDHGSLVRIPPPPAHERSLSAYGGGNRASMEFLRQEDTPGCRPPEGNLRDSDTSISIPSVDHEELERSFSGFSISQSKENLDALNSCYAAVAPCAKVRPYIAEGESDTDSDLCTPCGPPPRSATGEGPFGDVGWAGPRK

Row | pEC50 | Maximum agonist rate (%) | Compound
1 | 6.40 | 36.30 | Cc1cc2c(c(C)c1NC(=O)CC1(C)CC1)CN(c1ccc(F)cc1)CC2 [Compound 3001]
2 | 7.23 | 38.96 | Cc1cc2c(c(C)c1NC(=O)CC1(C)CC1)CN(c1ccc(C(F)(F)F)cc1)CC2 [Compound 3002]
